Source: patent US10660856B2, “Porous silica gel as a carrier for liquid technologies” (W.R. Grace & Co.-Conn., priority 2013, dated 2020)

Key:
Type in all cases: physicochemical
[1] = Specific gravity of oils and surfactants
[2] = Oil or surfactant adsorption capacity on Sample S1 (ASTM D281 titration)
Protocol: Procedure: 2 to 5 g (based on bulk density) of the solid carrier material was placed in a 100 ml beaker and the oil or surfactant was added drop wise from a Burette, while mixing with spatula according to ASTM […]. The addition of oil or surfactant was continued until a thick paste-like mass formation. The addition of oil or surfactant was stopped when the mass appeared to contain excess oil. The Burette reading was recorded when the mass contained no excess oil or surfactant. The adsorption capacity was calculated using the below equation: [formula]

[3] = Oil release (Tocopherol) from tablets, dissolution with HPLC; settings: at 45 min, from tablets of Tocopherol loaded silica S2, 100 mg Tocopherol per tablet
Protocol: Oil Release (Tocopherol) from Tablets: The carrier materials used in the following trials was the material designated S2 in Example 1. Tocopherol was the liquid lipid that was loaded on to the silica. Silica S2 was loaded with liquid lipid pursuant to method of Example 8 and was used as the oil loaded carrier component in tablet. Tablets were prepared pursuant to the method in example 10. Tochopherol concentration in the tablet was 100 mg.
Tablets prepared were subjected to dissolution studies pursuant to the method described in Example 8. An aliquot of 2 mL was withdrawn at predetermined time interval and filtered through 0.22μ membrane filter. The dissolution samples were analyzed by using HPLC (Waters UPLC Wavelength: 294 nm Column: Rocket Format, 53×7 mm, 3μ) Mobile Phase: 85% ACN: 10% MeOH: 5% H2O.)

[4] = oil adsorbed on Sample S1 material

Specific gravity ([1]; oils, Table 2)	Adsorption capacity [2, 4]	Tocopherol release [3]	Specific gravity ([1]; surfactants, Table 3)	Adsorption capacity ([2]; surfactant adsorbed on Sample S1 material)	SMILES
0.950 g/mL	292 g/100 g	≈ 100%			Cc1c(C)c2c(c(C)c1O)CCC(C)(CCCC(C)CCCC(C)CCCC(C)C)O2 (racemic) [dl-α-Tocopherol]
0.895 g/mL	300 g/100 g				CCCCCCCC/C=C\CCCCCCCC(=O)O [Oleic acid]
			0.987 g/mL	295 g/100 g	CCOCCOCCO [Transcutol HP]
